# Measured values from US8415156B2, “Recombinant laminin-521” (Biolamina AB, priority 2010, dated 2013).
# Test system: Akt and MEK1
# Test: Western blot of pathway inhibitor treated cells
# Format: cell-based, human
# Settings: cells collected one hour after plating on LN-521, vs DMSO control
# Source text: InSolutionTM LY 294002 (a specific […]), InSolutionTM Wortmannin (a specific PI3K inhibitor), and InSolutionTM 98059 (a specific MEK1/Erk inhibitor) were purchased from Calbiochem. Antibodies to phospho-Akt (#4060), total-Akt (#9272), phospho-Erk (#9101), and total-Erk (#9102) were obtained from Cell Signaling Technology. PathScan Phospho-Akt1 sandwich ELISA kit (#7160), PathScan total Akt1 sandwich ELISA kit (#7170), PathScan Phospho-Akt2 sandwich ELISA kit (#7048), and PathScan total Akt2 sandwich ELISA kit (#7046) were also purchased from Cell Signaling Technology. Antibodies to Calnexin (#ab10286) were obtained from Abcam. Function blocking antibodies to various integrin subunits, mouse isotype antibodies, and α-dystroglycan were purchased from Millipore. Since function blocking antibodies to αV (MAB1980) and α6 (MAB1378) were presented in a solution with sodium azide, before the inhibition of survival experiment all the antibodies to alpha integrin subunits were dialyzed thrice against O3 medium for 2 hours each time. Antibodies to Lutheran receptor and α-fetoprotein, as well as rat isotype control antibodies were obtained from R&D Systems. Antibodies to Oct4, Nanog, SSEA-4, smooth muscle actin and MAP-2 were purchased from Millipore. […] For the densitometry analysis the films were scanned at 2,400 dpi and analyzed by the […]5500 program (1D-Multi Line densitometry mode). […]
structure (smiles),measurement,value
COc1cccc(-c2cc(=O)c3ccccc3o2)c1N [PD 98059],efficacy of inhibitor treatment by western blot,confirmed
